Measurements: patent US6358885B1, “Substituted phenylheterocyclic herbicides” (Mississippi State University, priority 1992, dated 2002)

Tests used:
Assay in all cases: Test B preemergence/postemergence greenhouse plant response rating 0 to 10
[1] = tested on: barley; assay type: in vivo, Hordeum vulgare; conditions: 0 to 10 scale
Description: (§1) Seeds of barley (Hordeum vulgare), barnyardgrass (Echinochloa crus-galli), bedstraw (Galium aparine), blackgrass (Alopecurus myosuroides), […] (Bromus secalinus), chickweed (Stellaria media), cocklebur (Xanthium pensylvanicum), corn (Zea mays), cotton (Gossypium hirsutum), crabgrass (Digitaria spp.), giant foxtail (Setaria faberii), lambsquarters (Chenopodium album), morningglory (Ipomoea hederacea), rape (Brassica napus), rice (Oryza sativa), sorghum (Sorghum bicolor), soybean (Glycine max), sugar beet (Beta vulgaris), velvetleaf (Abutilon theophrasti), wheat (Triticum aestivum), wild buckwheat (Polygonum convolvulus), and wild oat (Avena fatua) and purple nutsedge. (Cyperus rotundus) tubers were planted and treated preemergence with test chemicals dissolved in a non-phytotoxic solvent. At the same time, these crop and weed species were also treated with postemergence applications of test chemicals. Plants ranged in height from two to eighteen cm (one to four leaf stage) for postemergence treatments. Treated plants and controls were maintained in a greenhouse for twelve to sixteen days, after which all species were compared to controls and visually evaluated. […] A dash (-) response means no test result.

[2] = tested on: sugar beet; assay type: in vivo, Beta vulgaris; conditions: 0 to 10 scale
Description: as §1

[3] = tested on: barnyardgrass; assay type: in vivo, Echinochloa crus-galli; conditions: 0 to 10 scale
Description: as §1

[4] = tested on: morningglory; assay type: in vivo, Ipomoea hederacea; conditions: 0 to 10 scale
Description: as §1

[5] = tested on: crabgrass; assay type: in vivo, Digitaria spp.; conditions: 0 to 10 scale
Description: as §1

[6] = tested on: cotton; assay type: in vivo, Gossypium hirsutum; conditions: 0 to 10 scale
Description: as §1

[7] = tested on: velvetleaf; assay type: in vivo, Abutilon theophrasti; conditions: 0 to 10 scale
Description: as §1

[8] = tested on: blackgrass; assay type: in vivo, Alopecurus myosuroides; conditions: 0 to 10 scale
Description: as §1

[9] = tested on: lambsquarters; assay type: in vivo, Chenopodium album; conditions: 0 to 10 scale
Description: as §1

[10] = tested on: soybean; assay type: in vivo, Glycine max; conditions: 0 to 10 scale
Description: as §1

[11] = tested on: sorghum; assay type: in vivo, Sorghum bicolor; conditions: 0 to 10 scale
Description: as §1

[12] = tested on: rice; assay type: in vivo, Oryza sativa; conditions: 0 to 10 scale
Description: as §1

[13] = tested on: wild oat; assay type: in vivo, Avena fatua; conditions: 0 to 10 scale
Description: as §1

[14] = tested on: purple nutsedge; assay type: in vivo, Cyperus rotundus; conditions: 0 to 10 scale
Description: as §1

[15] = tested on: corn; assay type: in vivo, Zea mays; conditions: 0 to 10 scale
Description: as §1

[16] = tested on: chickweed; assay type: in vivo, Stellaria media; conditions: Rate 200 g/ha, 0 to 10 scale
Description: as §1

[17] = tested on: cocklebur; assay type: in vivo, Xanthium pensylvanicum; conditions: 0 to 10 scale
Description: as §1

[18] = tested on: cheatgrass; assay type: in vivo, Bromus secalinus; conditions: 0 to 10 scale
Description: as §1

[19] = tested on: rape; assay type: in vivo, Brassica napus; conditions: 0 to 10 scale
Description: as §1

[20] = tested on: wild buckwheat; assay type: in vivo, Polygonum convolvulus; conditions: 0 to 10 scale
Description: as §1

[21] = tested on: giant foxtail; assay type: in vivo, Setaria faberii; conditions: 0 to 10 scale
Description: as §1

[22] = tested on: bedstraw; assay type: in vivo, Galium aparine; conditions: 0 to 10 scale
Description: as §1

[23] = tested on: wheat; assay type: in vivo, Triticum aestivum; conditions: 0 to 10 scale
Description: as §1

With `Clc1ccc(-c2nn3c(c2Cl)CCCC3)c(Cl)c1` [Compound 35] the “Plant response rating, Barley” value ([1]; POSTEMERGENCE, Rate 50 g/ha) was 2, the “Plant response rating, Barley” value ([1]; POSTEMERGENCE, Rate 200 g/ha) was 4 and the “Plant response rating, Barley” value ([1]; PREEMERGENCE, Rate 50 g/ha) was 0. For the same molecule, the “Plant response rating, Barley” value ([1]; Rate 200 g/ha, PREEMERGENCE) was 0, the “Plant response rating, Sugar beet” value ([2]; POSTEMERGENCE, Rate 50 g/ha) was 9 and the “Plant response rating, Sugar beet” value ([2]; PREEMERGENCE, Rate 50 g/ha) was 0. The “Plant response rating, Sugar beet” value ([2]; Rate 200 g/ha, POSTEMERGENCE) was 10, the “Plant response rating, Sugar beet” value ([2]; Rate 200 g/ha, PREEMERGENCE) was 4 and the “Plant response rating, Barnyardgrass” value ([3]; POSTEMERGENCE, Rate 50 g/ha) was 5. The “Plant response rating, Barnyardgrass” value ([3]; POSTEMERGENCE, Rate 200 g/ha) was 9, the “Plant response rating, Barnyardgrass” value ([3]; PREEMERGENCE, Rate 50 g/ha) was 1 and the “Plant response rating, Barnyardgrass” value ([3]; Rate 200 g/ha, PREEMERGENCE) was 7. For the same molecule, the “Plant response rating, Morningglory” value ([4]; POSTEMERGENCE, Rate 50 g/ha) was 5, the “Plant response rating, Morningglory” value ([4]; PREEMERGENCE, Rate 50 g/ha) was 0 and the “Plant response rating, Morningglory” value ([4]; Rate 200 g/ha, POSTEMERGENCE) was 7. For the same molecule, the “Plant response rating, Morningglory” value ([4]; Rate 200 g/ha, PREEMERGENCE) was 2, the “Plant response rating, Crabgrass” value ([5]; POSTEMERGENCE, Rate 50 g/ha) was 3 and the “Plant response rating, Crabgrass” value ([5]; POSTEMERGENCE, Rate 200 g/ha) was 6. The “Plant response rating, Crabgrass” value ([5]; PREEMERGENCE, Rate 50 g/ha) was 4, the “Plant response rating, Crabgrass” value ([5]; Rate 200 g/ha, PREEMERGENCE) was 9 and the “Plant response rating, Cotton” value ([6]; POSTEMERGENCE, Rate 50 g/ha) was 9. For the same molecule, the “Plant response rating, Cotton” value ([6]; POSTEMERGENCE, Rate 200 g/ha) was 10, the “Plant response rating, Cotton” value ([6]; PREEMERGENCE, Rate 50 g/ha) was 0 and the “Plant response rating, Cotton” value ([6]; Rate 200 g/ha, PREEMERGENCE) was 4. For the same molecule, the “Plant response rating, Velvetleaf” value ([7]; POSTEMERGENCE, Rate 50 g/ha) was 8, the “Plant response rating, Velvetleaf” value ([7]; PREEMERGENCE, Rate 50 g/ha) was 2 and the “Plant response rating, Velvetleaf” value ([7]; Rate 200 g/ha, POSTEMERGENCE) was 10. The “Plant response rating, Velvetleaf” value ([7]; Rate 200 g/ha, PREEMERGENCE) was 10, the “Plant response rating, Blackgrass” value ([8]; POSTEMERGENCE, Rate 50 g/ha) was 3 and the “Plant response rating, Blackgrass” value ([8]; POSTEMERGENCE, Rate 200 g/ha) was 4. The “Plant response rating, Blackgrass” value ([8]; PREEMERGENCE, Rate 50 g/ha) was 0, the “Plant response rating, Blackgrass” value ([8]; Rate 200 g/ha, PREEMERGENCE) was 4 and the “Plant response rating, Lambsquarter” value ([9]; POSTEMERGENCE, Rate 50 g/ha) was 9. The “Plant response rating, Lambsquarter” value ([9]; PREEMERGENCE, Rate 50 g/ha) was 10, the “Plant response rating, Lambsquarter” value ([9]; Rate 200 g/ha, POSTEMERGENCE) was 10 and the “Plant response rating, Lambsquarter” value ([9]; Rate 200 g/ha, PREEMERGENCE) was 10. For the same molecule, the “Plant response rating, Soybean” value ([10]; POSTEMERGENCE, Rate 50 g/ha) was 4, the “Plant response rating, Soybean” value ([10]; PREEMERGENCE, Rate 50 g/ha) was 0 and the “Plant response rating, Soybean” value ([10]; Rate 200 g/ha, POSTEMERGENCE) was 5. For the same molecule, the “Plant response rating, Soybean” value ([10]; Rate 200 g/ha, PREEMERGENCE) was 3, the “Plant response rating, Sorghum” value ([11]; POSTEMERGENCE, Rate 50 g/ha) was 5 and the “Plant response rating, Sorghum” value ([11]; PREEMERGENCE, Rate 50 g/ha) was 0. The “Plant response rating, Sorghum” value ([11]; Rate 200 g/ha, POSTEMERGENCE) was 6, the “Plant response rating, Sorghum” value ([11]; Rate 200 g/ha, PREEMERGENCE) was 3 and the “Plant response rating, Rice” value ([12]; POSTEMERGENCE, Rate 50 g/ha) was 5. For the same molecule, the “Plant response rating, Rice” value ([12]; PREEMERGENCE, Rate 50 g/ha) was 0, the “Plant response rating, Rice” value ([12]; Rate 200 g/ha, POSTEMERGENCE) was 6 and the “Plant response rating, Rice” value ([12]; Rate 200 g/ha, PREEMERGENCE) was 2. For the same molecule, the “Plant response rating, Wild oat” value ([13]; POSTEMERGENCE, Rate 50 g/ha) was 3, the “Plant response rating, Wild oat” value ([13]; PREEMERGENCE, Rate 50 g/ha) was 0 and the “Plant response rating, Wild oat” value ([13]; Rate 200 g/ha, POSTEMERGENCE) was 4. The “Plant response rating, Nutsedge” value ([14]; POSTEMERGENCE, Rate 50 g/ha) was 1, the “Plant response rating, Nutsedge” value ([14]; PREEMERGENCE, Rate 50 g/ha) was 0 and the “Plant response rating, Nutsedge” value ([14]; Rate 200 g/ha, POSTEMERGENCE) was 3. The “Plant response rating, Nutsedge” value ([14]; Rate 200 g/ha, PREEMERGENCE) was 2, the “Plant response rating, Corn” value ([15]; POSTEMERGENCE, Rate 50 g/ha) was 4 and the “Plant response rating, Corn” value ([15]; POSTEMERGENCE, Rate 200 g/ha) was 7. For the same molecule, the “Plant response rating, Corn” value ([15]; PREEMERGENCE, Rate 50 g/ha) was 0, the “Plant response rating, Corn” value ([15]; Rate 200 g/ha, PREEMERGENCE) was 3 and the “Plant response rating, Chickweed” value ([16]; POSTEMERGENCE) was 3. The “Plant response rating, Chickweed” value ([16]; PREEMERGENCE) was 9, the “Plant response rating, Cocklebur” value ([17]; POSTEMERGENCE, Rate 50 g/ha) was 5 and the “Plant response rating, Cocklebur” value ([17]; POSTEMERGENCE, Rate 200 g/ha) was 7. The “Plant response rating, Cocklebur” value ([17]; PREEMERGENCE, Rate 50 g/ha) was 0, the “Plant response rating, Cocklebur” value ([17]; Rate 200 g/ha, PREEMERGENCE) was 2 and the “Plant response rating, Cheatgrass” value ([18]; POSTEMERGENCE, Rate 50 g/ha) was 3. For the same molecule, the “Plant response rating, Cheatgrass” value ([18]; POSTEMERGENCE, Rate 200 g/ha) was 5, the “Plant response rating, Cheatgrass” value ([18]; PREEMERGENCE, Rate 50 g/ha) was 1 and the “Plant response rating, Cheatgrass” value ([18]; Rate 200 g/ha, PREEMERGENCE) was 5. The “Plant response rating, Rape” value ([19]; POSTEMERGENCE, Rate 50 g/ha) was 6, the “Plant response rating, Rape” value ([19]; PREEMERGENCE, Rate 50 g/ha) was 0 and the “Plant response rating, Rape” value ([19]; Rate 200 g/ha, POSTEMERGENCE) was 9. For the same molecule, the “Plant response rating, Wild buckwheat” value ([20]; POSTEMERGENCE, Rate 50 g/ha) was 6, the “Plant response rating, Wild buckwheat” value ([20]; PREEMERGENCE, Rate 50 g/ha) was 0 and the “Plant response rating, Wild buckwheat” value ([20]; Rate 200 g/ha, POSTEMERGENCE) was 10. For the same molecule, the “Plant response rating, Wild buckwheat” value ([20]; Rate 200 g/ha, PREEMERGENCE) was 1, the “Plant response rating, Giant foxtail” value ([21]; POSTEMERGENCE, Rate 50 g/ha) was 4 and the “Plant response rating, Giant foxtail” value ([21]; PREEMERGENCE, Rate 50 g/ha) was 2. For the same molecule, the “Plant response rating, Giant foxtail” value ([21]; Rate 200 g/ha, POSTEMERGENCE) was 7, the “Plant response rating, Giant foxtail” value ([21]; Rate 200 g/ha, PREEMERGENCE) was 9 and the “Plant response rating, Bedstraw” value ([22]; POSTEMERGENCE, Rate 50 g/ha) was 7. For the same molecule, the “Plant response rating, Bedstraw” value ([22]; POSTEMERGENCE, Rate 200 g/ha) was 9, the “Plant response rating, Bedstraw” value ([22]; PREEMERGENCE, Rate 50 g/ha) was 0 and the “Plant response rating, Bedstraw” value ([22]; Rate 200 g/ha, PREEMERGENCE) was 8. For the same molecule, the “Plant response rating, Wheat” value ([23]; POSTEMERGENCE, Rate 50 g/ha) was 2, the “Plant response rating, Wheat” value ([23]; PREEMERGENCE, Rate 50 g/ha) was 0 and the “Plant response rating, Wheat” value ([23]; Rate 200 g/ha, POSTEMERGENCE) was 5. For the same molecule, the “Plant response rating, Wheat” value ([23]; Rate 200 g/ha, PREEMERGENCE) was 7.
